Data as given in PubChem BioAssay (NCI).
Several values for one entry are separate records, joined by “and”; a condition that tells them apart may be missing. Equal values may be shown once.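 Five concentrations, 48 hours, 96-well plates. GI50 is the concentration that inhibits growth by half. TGI is the concentration that stops growth completely.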

How the values were obtained:
Test in all cases: NCI tumour cell line growth inhibition, 48 h
[1] = tested on: 786-0 renal
[2] = tested on: SNB-75 CNS
[3] = tested on: SK-OV-3 ovarian
[4] = tested on: SNB-19 CNS
[5] = tested on: A549 NSCLC
[6] = tested on: DU-145 prostate
[7] = tested on: SR leukemia
[8] = tested on: NCI/ADR-RES ovarian
[9] = tested on: HOP-92 NSCLC
[10] = tested on: HCC-2998 colon

With `CCN(CC)CCCNc1c2cc(OC)ccc2nc2cccc([N+](=O)[O-])c12` the TGI [1] was 0.464 µM, the TGI [2] was 0.354 µM and the TGI [3] was 0.789 µM. It also gave a TGI [4] of 2.02 µM, a TGI [5] of 0.507 µM and a TGI [6] of 0.426 µM. It also gave a TGI [7] of 0.061 µM, a TGI [8] of 1.51 µM and a TGI [9] of 0.239 µM. It also gave a TGI [10] of 0.192 µM.
With `CC(C)[Si](CC1=CCCCC12C(=O)N(COCC[Si](C)(C)C)c1ccccc12)(C(C)C)C(C)C` (configuration not stated) the TGI [1] was over 100 µM, the TGI [2] was over 100 µM and the TGI [3] was over 100 µM. The TGI [4] was over 100 µM, the TGI [5] was over 100 µM and the TGI [6] was over 100 µM. It also gave a TGI [7] of over 100 µM, a TGI [8] of over 100 µM and a TGI [9] of over 100 µM. For the same compound, the TGI [10] was over 100 µM.
For `Cc1nc2c(ccc3[nH]c4ccccc4c32)s1`, the TGI [1] was over 100 µM, the TGI [2] was over 100 µM and the TGI [3] was over 100 µM. The TGI [4] was over 100 µM, the TGI [5] was over 100 µM and the TGI [6] was over 100 µM. The TGI [7] was 87.8 µM, the TGI [8] was over 100 µM and the TGI [9] was 45.4 µM. For the same compound, the TGI [10] was 30.2 µM.
`CC(=O)Oc1ccc(C2SCc3nc4ccccc4n32)cc1` (configuration not stated) was tested, and the TGI [1] was over 100 µM, the TGI [2] was 77.2 µM and the TGI [3] was 95.3 µM. It also gave a TGI [4] of over 100 µM, a TGI [5] of over 100 µM and a TGI [6] of over 100 µM. For the same compound, the TGI [7] was over 73 µM, the TGI [8] was 51.6 µM and the TGI [9] was over 100 µM. It also gave a TGI [10] of 69 µM.
Work on `FC1(F)SC2CCCCCCCCCCC2C1(F)F` (configuration not stated) yielded a TGI [1] of over 100 µM, a TGI [2] of over 100 µM and a TGI [3] of over 100 µM. The TGI [4] was over 100 µM, the TGI [5] was over 100 µM and the TGI [6] was over 100 µM. It also gave a TGI [7] of over 100 µM, a TGI [8] of over 100 µM and a TGI [9] of 51.6 µM.
`COc1cc(/C=C2\CCCC3=C2N=C2SC=NN2C3c2cc(OC)c(OC)c(OC)c2)cc(OC)c1OC` (configuration not stated) gave a GI50 [2] of 7.52 µM, a TGI [2] of over 100 µM and a GI50 [4] of 4.44 µM. The TGI [4] was over 100 µM, the GI50 [5] was 2.95 µM and the TGI [5] was over 100 µM. For the same compound, the GI50 [6] was 3.97 µM, the TGI [6] was over 100 µM and the GI50 [7] was 2.55 µM. The TGI [7] was 9.47 µM, the GI50 [8] was 3.45 µM and the TGI [8] was over 100 µM. For the same compound, the GI50 [9] was 2.98 µM and the TGI [9] was over 100 µM.
Compound `O=[N+]([O-])C(=C(\Cl)NCCO)/C(Cl)=C(/Cl)Br` has a TGI [1] of 2.75 µM, a TGI [2] of 9.08 µM and a TGI [3] of 28.5 µM. For the same compound, the TGI [4] was 18 µM, the TGI [5] was 21.1 µM and the TGI [6] was 20.6 µM. The TGI [7] was 5.25 µM, the TGI [8] was 7.42 µM and the TGI [9] was 3.53 µM. For the same compound, the TGI [10] was 11.1 µM.
For `CCOC(=O)CCNC(=O)c1cc(C)cc2c1Oc1c(cc(C)cc1C(=O)NCCC(=O)OCC)S2`, the TGI [1] was over 100 µM, the TGI [2] was 78.9 µM and the TGI [3] was over 100 µM. It also gave a TGI [4] of over 100 µM, a TGI [5] of over 100 µM and a TGI [6] of over 100 µM. The TGI [7] was over 100 µM, the TGI [8] was over 100 µM and the TGI [9] was 87.8 µM. For the same compound, the TGI [10] was over 100 µM.
`CN(C)C=Nc1cccc2c1NSN2` gave a TGI [1] of over 100 µM, a TGI [2] of over 100 µM and a TGI [3] of over 100 µM. For the same compound, the TGI [4] was over 100 µM, the TGI [5] was over 100 µM and the TGI [6] was over 100 µM. The TGI [7] was over 100 µM, the TGI [8] was over 100 µM and the TGI [9] was over 100 µM. It also gave a TGI [10] of over 100 µM.
Work on `O=C1CN2CCN(CC2)CC(=O)Nc2ccc(cc2)S(=O)(=O)c2ccc(cc2)NC(=O)CN2CCN(CC2)CC(=O)Nc2ccc(cc2)S(=O)(=O)c2ccc(cc2)N1` yielded a TGI [1] of over 100 µM, a TGI [2] of over 100 µM and a TGI [3] of over 100 µM. It also gave a TGI [4] of over 100 µM, a TGI [5] of over 100 µM and a TGI [6] of over 100 µM. For the same compound, the TGI [7] was over 100 µM, the TGI [8] was over 87.3 µM and the TGI [9] was over 100 µM. The TGI [10] was over 100 µM.
Compound `C[C@H](OC(=O)/C=C/c1ccc(O)c(O)c1)[C@H](C)OC(=O)/C=C/c1ccc(O)c(O)c1` has a TGI [1] of 20 µM, a TGI [2] of 39.3 µM and a TGI [3] of 32.3 µM. The TGI [4] was 25.6 µM, the TGI [5] was over 100 µM and the TGI [6] was 39.3 µM. For the same compound, the TGI [7] was over 100 µM, the TGI [8] was 63.1 µM and the TGI [9] was 38.2 µM. For the same compound, the TGI [10] was 33.4 µM.
Compound `COc1cc(CNC(=O)CCCCCCCCCCSC#N)ccc1O` has a TGI [1] of 41.5 µM, a TGI [2] of 29.3 µM and a TGI [3] of 25.8 µM. The TGI [4] was 48.3 µM, the TGI [5] was 42.1 µM and the TGI [6] was 34.3 µM. It also gave a TGI [7] of 91.5 µM, a TGI [8] of 59.7 µM and a TGI [9] of 34.8 µM. The TGI [10] was over 100 µM.
For `Cc1c(OCc2cccc3ccccc23)ccc2c(=O)cc(S)oc12`, the TGI [1] was over 100 µM, the TGI [2] was over 100 µM and the TGI [4] was over 100 µM. The TGI [5] was over 100 µM, the TGI [6] was over 100 µM and the TGI [7] was 62.1 µM. The TGI [8] was over 100 µM, the TGI [9] was 67.1 µM and the TGI [10] was over 100 µM.
`COC(=O)/C=C/c1cc(OC)c2c(c1)C(C(=O)OC)C(c1ccc(O)c(OC)c1)O2` (configuration not stated) was tested, and the TGI [1] was > 100 µM and > 49.7 µM and 36.3 µM, the GI50 [2] was 0.91 µM and the TGI [2] was 4.36 µM and 6.67 µM and 15.2 µM. For the same compound, the TGI [3] was over 100 µM, the GI50 [4] was 4.15 µM and 4.27 µM and 9.01 µM and the TGI [4] was over 100 µM. For the same compound, the TGI [5] was over 100 µM, the TGI [6] was > 100 µM and 35.7 µM and the TGI [7] was > 25.7 µM and 3.91 µM. For the same compound, the GI50 [8] was 3.4 µM and 2.76 µM and 1.68 µM, the TGI [8] was > 33.9 µM and 26.6 µM and 12.9 µM and the GI50 [9] was > 37.2 µM and 12.4 µM and 16.9 µM. The TGI [9] was over 100 µM, the GI50 [10] was 24.5 µM and 10.6 µM and 5.69 µM and the TGI [10] was 48.4 µM and 25.6 µM and 21 µM.
Compound `Nc1nc(=O)n(C2CC(O)C(CO)O2)c2nc(-c3ccc(-c4ccccc4)cc3)cnc12` (configuration not stated) has a TGI [1] of over 100 µM, a TGI [2] of 66.8 µM and a TGI [3] of over 100 µM. For the same compound, the TGI [4] was 91.1 µM, the TGI [5] was over 100 µM and the TGI [6] was over 100 µM. For the same compound, the TGI [7] was over 100 µM, the TGI [8] was over 100 µM and the TGI [9] was over 100 µM. For the same compound, the TGI [10] was over 100 µM.
